Patent US6306899A (priority 1999, dated 2001)
In brackets after ≈: the same amount, converted by molar mass. Entries after “also recorded” stand apart in the source; their conditions may differ.

Experiments:
HBV [1] = details: background; in words; cited from earlier work
[2] = background; in words; cited from earlier work
HBV [3] = assay: microbe, parasite or virus in culture; format: cell-based, Hepatitis B virus; details: for EC50: Hepatitis B virus, 144 h; for inhibition of HBV replication / DNA level: in words
Yellow Fever virus = assay: microbe, parasite or virus in culture; format: cell-based; details: for EC50: Yellow fever virus, BHK, 144 h, read-out: Anti-viral activity (ED50) YFV, plaque reduction, BHK cells, 6 days
HBsAg = assay: microbe, parasite or virus in culture; format: cell-based, Hepatitis B virus; details: for EC50: Hepatitis B virus, 144 h, read-out: Anti-viral activity (ED50) HbsAg; for HbsAg expression inhibition: in words
[4] = Cytotoxicity, HepG2 cell growth; format: cell-based; details: human, hepg2 cells; 3 days; read-out: Cytotoxicity (IC50) HepG2 cell
Protocol: (§1) To determine the cellular toxicity of the present compounds, the T-lymphoblastoic cell line (CEM) and the HEP-G2 cell line (parent cell line from which 2.2.15 cell line is produced) were used. Cells were subjected to varying concentrations of the drug(s) and cell numbers were determined 3 days post treatment by the method described by Chen, C-H and Cheng, Y-C, J. Biol. Chem., 264, 11934 (1989). Concentrations of the drug which would result in inhibition of cell growth were determined from the plot generated by representing cell numbers corresponding to the individual drug concentrations.

[5] = Cytotoxicity, CEM cell growth; format: cell-based; details: human, cem cells; 3 days; read-out: Cytotoxicity (IC50) CEM cell
Protocol: as §1

[6] = Solubility: saturated solution in PBS at room temperature; format: physicochemical; details: aqueous buffer
Description: 3. The symbol "*" denotes the concentration of the saturated solution in
PBS at room temperature.

3TC resistant HBV (DM2) = assay: Activity against 3TC resistant HBV (DM2, L526MM550V) in transfected HepG2 cells; format: cell-based, Hepatitis B virus; details: in words; for effect on 3TC resistant HBV: DM2, HepG2, 9 days
WT10 = assay: Activity against wild-type HBV (WT10) in transfected HepG2 cells; format: cell-based, Hepatitis B virus; details: in words
HBsAg in Hep3B cells = assay: Suppression of HBsAg secretion in Hep3B cells, serum-free, 2 days; format: cell-based; details: Homo sapiens, 48 h, read-out: EC50 Hep3B (50% reduction of HBsAg secretion)
Description: (§2) Biological testing results of Helioxanthin and
(§3) its derivatives for suppression of HBsAg
(§4) in HepA2 and Hep3B cells in serum-free condition for 2 days
(§5) The symbol, "**" denotes EC50, the concentration of tested compounds
(§6) which exerted 50% reduction of HBsAg secretion in human hepatoma cells.

HBsAg in HepA2 cells = assay: Suppression of HBsAg secretion in HepA2 cells, serum-free, 2 days; format: cell-based; details: Homo sapiens, HepA2, 48 h, read-out: EC50 HepA2 (50% reduction of HBsAg secretion)
Description: as §2, §3, §4
The symbol, "*" denotes HepA2, HBV DNA stable transfected HBV dimer DNA.
as §5, §6

HBV RNA = HBV RNA level (Northern analysis); format: cell-based, Hepatitis B virus; details: in words
Protocol: The biological activity of the present compounds was assessed as described by Doong, S-L, et al., Proc. Natl. Acad. Sci. U.S.A 88, 8495-8499 (1991). The human hepatoma cell line carrying HBV (cell line designated 2.2.15) provided by Dr. G. Aces was used in the study. Price, et al., Proc. Natl. Acad. Sci. U.S.A. 86, 8541 (1989). Briefly, six day-old cultures were treated with varying concentrations of the drug in the culture medium (Minimum essential medium with Earl's salts and 10% fetal bovine serum). The drug was left in the culture medium for a period of 3 days after which period the medium was aspirated and fresh medium containing the same concentration(s) of the drug was added. […] Inhibition of the viral replication was determined by the comparison of the viral DNA from drug-treated versus control cultures not treated with the drug. In addition, supernatant obtained from the polyethylene glycol precipitation of the cell culture medium (above) was measured for the presence of two HBV antigens (HBsAg and HBeAg) using enzyme immunoassay kits from Abbott Laboratories, Inc. [HBs (rDNA) EIA and HBe (rDNA)EIA], pursuant to standard practice (FIG. 3A). RNA levels were determed using Northern analysis with cellular albumin RNA being measured as a load control to standardize the quality of the HBV RNA measurement (FIG. 3B).

| SMILES | EC50 (HBV [3]) [µM] | EC50 (Yellow Fever virus) [µM] | EC50 (HBsAg) [µM] | CC50 at 72 h [4] [µM] | CC50 at 72 h [5] [µM] | solubility [6] [µM] | further results |
| --- | --- | --- | --- | --- | --- | --- | --- |
| Nc1ncnc2c1ncn2[C@@H]1O[C@H](COP(=O)(O)O)[C@@H](O)[C@@H]1O [ara-AMP] |  |  |  |  |  |  | effect on HBV infection (HBV [1]): transiently suppress HBV infection; toxicity [2]: extremely toxic |
| O=C1OCc2cc3ccc4c(c3c(-c3ccc5c(c3)OCO5)c21)OCO4 [ZHU-IX-139-2, 7,8-methylendioxy-1-(3',4'-methylenedioxyphenyl)-3-hydroxymethylnapthalene-2-carboxylic acid lactone] | > 10 | 16 | 10 | 12 | 18 | 21 (≈ 7.31 µg/mL) |  |
| O=C1OC(=O)c2c1c(Br)c1cc3c(cc1c2-c1cc2c(cc1Br)OCO2)OCO3 [ZHU-IX-120-2, 1-bromo-6,7-methylenedioxy-4-(2'-bromo-4', 5'-methylenedioxyphenyl)napthalene-2,3-dicarboxylic acid anyhdride] | > 10 | > 10 | > 10 | 6 | > 30 | 13.1 (≈ 6.81 µg/mL) |  |
| Nc1ccn([C@H]2CC[C@@H](CO)O2)c(=O)n1 [2',3'-dideoxycytidine (ddC), 2',3'-dideoxycytidine] |  |  |  |  |  |  | toxicity [2]: high toxicity on the central and peripheral nervous system |
| OCc1cc2c(Br)cc3c(c2c(-c2ccc4c(c2)OCO4)c1CO)OCO3 [ZHU-IX-135-1, 2,3-dihydroxymethyl-5-bromo-7,8-methylenedioxy-1-(3', 4'-methylenedioxyphenyl)napthalene] | 3 | 14 | 8.5 | 12 | > 30 | 24.8 (≈ 10.7 µg/mL) | inhibition of HBV replication / DNA level (HBV [3]): inhibit HBV replication; HbsAg expression inhibition (HBsAg): inhibit HBV replication and HbsAg expression |
| Nc1ccn([C@@H]2CS[C@H](CO)O2)c(=O)n1 [Compound 3TC] |  |  |  |  |  |  | sensitivity of HBV DNA production of DM2 to 3TC (3TC resistant HBV (DM2); DM2): resistant; sensitivity of HBV DNA production of WT10 to 3TC (WT10): sensitive; effect on HBV infection (HBV [1]): recurrence of HBV after a period of treatment |
| Nc1nc2c(ncn2CCC(CO)CO)c(=O)[nH]1 [PCV] |  |  |  |  |  |  | effect on HBV infection (HBV [1]): recurrence of HBV after a period of treatment |
| O=C1OCc2c1cc1c(Br)cc3c(c1c2-c1cc2c(cc1Br)OCO2)OCO3 [ZHU-IX-143, 8,2'-dibromo-5,6-methylenedioxy-4-(4',5'-methylenedioxyphenyl)-3-hydroxymethylnapthalene-2-carboxylic acid lactone] | > 10 | > 10 | > 10 | 20 | > 30 | 11.9 (≈ 6.02 µg/mL) |  |
| OCc1cc2ccc3c(c2c(-c2ccc4c(c2)OCO4)c1CO)OCO3 [ZHU-IX-124-2, 2,3-dihydroxymethyl-5,6-methylenedioxy-4-(3',4'-methylenedioxyphenyl)napthalene] | 10 | > 10 | 10 | 16 | > 30 | 127 (≈ 44.8 µg/mL) |  |
| Cc1c(CO)cc2ccc3c(c2c1-c1ccc2c(c1)OCO2)OCO3 [ZHU-IX-122-1, 3-methyl-5,6-methylenedioxy-4-(3',4'-methylenedioxyphenyl)-2-hydroxymethylnapthalene] | 5 | > 10 | 10 | > 30 | > 30 | 52.9 (≈ 17.8 µg/mL) | inhibition of HBV replication / DNA level (HBV [3]): inhibit HBV replication; HbsAg expression inhibition (HBsAg): inhibit HBV replication and HbsAg expression |
| O=C1OC(=O)c2c1cc1cc3c(cc1c2-c1cc2c(cc1Br)OCO2)OCO3 [ZHU-IX-120-3, 6,7-methylenedioxy-1-(2'-bromo-4',5'-methylenedioxyphenyl)napthalene-2,3-dicarboxylic acid anhydride] | > 10 | > 10 | > 10 | 11 | > 30 | 11.8 (≈ 5.21 µg/mL) |  |
| O=C1OC(=O)c2c1cc1c(Br)cc3c(c1c2-c1cc2c(cc1Br)OCO2)OCO3 [ZHU-IX-120-1, 5-bromo-7,8-methylenedioxy-1-(2'-bromo-4',5'-methylenedioxyphenyl)napthalene-2,3-dicarboxylic acid anhydride] | > 10 | > 10 | > 10 | 6 | > 30 | 13.8 (≈ 7.18 µg/mL) |  |
| O=C1OCc2c1cc1ccc3c(c1c2-c1ccc2c(c1)OCO2)OCO3 [Compound 145, 7,8-methylenedioxy-1-(3',4'-methylenedioxyphenyl)-2-hydroxymethylnaphthalene-3-carboxylic acid lactone] | 1 | 9.5 | 4 | 26 | 22 | 24.7 (≈ 8.6 µg/mL) | EC50 (HBsAg in Hep3B cells): 0.025 µM; inhibition of HBV replication / DNA level (HBV [3]): selectively inhibited HBV replication; also recorded: decreased the RNA and DNA level; also recorded: the most active compound in the series tested; also recorded: inhibit HBV replication in cell culture; inhibition of HBV replication / DNA level (HBV [3]; listed as helioxanthin): selectively inhibited HBV replication; activity against the Yellow fever virus (Yellow Fever virus; in words): demonstrated activity against the Yellow fever virus; EC50 (HBsAg in HepA2 cells): 0.25 µM; effect on 3TC resistant HBV (3TC resistant HBV (DM2)): excellent anti-HBV activity even in 3TC (L(-)SddC) resistant HBV; effect on 3TC resistant HBV (3TC resistant HBV (DM2); listed as helioxanthin): stronger inhibition of viral replication of strains of HBV that have become resistant to 3TC; HbsAg expression inhibition (HBsAg): inhibit HBV replication and HbsAg expression; HBV RNA level (HBV RNA): decreased the RNA and DNA level; also recorded: decrease the RNA level of HBV; HBV RNA level (HBV RNA; listed as helioxanthin): decreased the RNA level |
